One assay deals with NS3h 2a[JFH1]. As to the kind of experiment: NS3h unwinding inhibitors, genotype 1b and 2a – biochemical, real-time fluorescence, strains con1 and JFH1, set 3, selectivity assay for HCV NS3 helicase inhibitor project, late-stage follow-up (AID 602275). As to conditions: Recombinant NS3h.
Another assay addresses NS3h 1b[con1]. The assay is described as above. The following applies: Recombinant NS3h.

Molecules are shown by their SMILES. Where “and” joins values, the source holds several entries; their conditions need not be identical. Equal values may be shown once. Calls of active or inactive are those of the source. No rule for the calls is given here.

For orientation: IC50 means the concentration needed to halve the response being measured. Consider `COc1ccc(S(=O)(=O)Nc2ccc(-c3nc4ccc(-c5nc6ccc(C)c(S(=O)(=O)O)c6s5)cc4s3)cc2)cc1`, for which the results for the half-maximal inhibitory concentration (IC50) on NS3h 2a[JFH1] and at NS3h 1b[con1] were 13.4 µM and 24.4 µM, respectively.
The corresponding values for `Cc1ccc2nc(-c3ccc4nc(-c5ccc(NC(=O)Nc6ccc(Cl)cc6)cc5)sc4c3)sc2c1S(=O)(=O)O` are 4.4 µM and 3.6 µM.
For the molecule `Cc1ccc2nc(-c3ccc4nc(-c5ccc(NC(=O)c6ccc(N)cc6)cc5)sc4c3)sc2c1S(=O)(=O)O`, the results for the IC50 at NS3h 2a[JFH1] and on NS3h 1b[con1] were 5.3 µM and 10.3 µM, respectively.
On to `Cc1ccc2nc(-c3ccc(NC(=O)c4ccc(C(F)(F)F)cc4)cc3)sc2c1S(=O)(=O)O`, for which the outcome at NS3h 2a[JFH1] and at NS3h 1b[con1] was inactive.
Regarding `Cc1ccc2nc(-c3ccc4nc(-c5ccc(NC(=O)c6ccc(NC(=O)OCC7c8ccccc8-c8ccccc87)cc6)cc5)sc4c3)sc2c1S(=O)(=O)O`, the IC50 at NS3h 2a[JFH1] was 5.8 µM; at NS3h 1b[con1], 5.4 µM.
For `Cc1ccc2nc(-c3ccc4nc(-c5ccc(NC(=O)c6ccc(Cl)cc6)cc5)sc4c3)sc2c1S(=O)(=O)O`, the figures for the IC50 at NS3h 2a[JFH1] and on NS3h 1b[con1] were 2.3 µM and 3.4 µM, respectively.
`Cc1ccc2nc(-c3ccc4nc(-c5ccc(NC(=O)c6cccc(C(F)(F)F)c6F)cc5)sc4c3)sc2c1S(=O)(=O)O`: the figures for the IC50 at NS3h 2a[JFH1] and at NS3h 1b[con1] were 8.1 µM and 9.2 µM, respectively.
Consider `Cc1ccc2nc(-c3ccc4nc(-c5ccc6nc(-c7ccc8nc(-c9ccc(N)cc9)sc8c7)sc6c5)sc4c3)sc2c1S(=O)(=O)O`, for which the IC50 on NS3h 2a[JFH1] is 0.5 µM and 1.2 µM; on NS3h 1b[con1], 0.8 µM and 2.2 µM.
For the molecule `CN1CCN(Cc2cc(CN3CCN(C)CC3)c(O)c(=O)c(CN3CCN(C)CC3)c2)CC1`, the IC50 at NS3h 2a[JFH1] is 18.9 µM; at NS3h 1b[con1] it was 24 µM.
The corresponding values for `Cc1ccc2nc(-c3ccc4nc(-c5ccc(NC(=O)c6ccc(Br)cc6)cc5)sc4c3)sc2c1S(=O)(=O)O` are 7.4 µM and 5.2 µM.
The corresponding values for `COc1cccc2c(=O)c3cc(Cl)cc(C(=O)Nc4cc(Cl)ccn4)c3[nH]c12` are 25.3 µM and 27.5 µM.
`Cc1ccc2nc(-c3ccc(NC(=O)c4ccc(NC(=O)OCC5c6ccccc6-c6ccccc65)cc4)cc3)sc2c1S(=O)(=O)O`: the half-maximal inhibitory concentration (IC50) at NS3h 2a[JFH1] is 11.5 µM; on NS3h 1b[con1], 11.8 µM.
On to `CCN(CC)c1ccc(-c2nc3ccc(C)c(S(=O)(=O)O)c3s2)cc1`, for which the IC50 on NS3h 2a[JFH1] is 24.6 µM; at NS3h 1b[con1] it was 32.9 µM.
For `Cc1ccc2nc(-c3ccc(NC(=O)c4ccc(N)cc4)cc3)sc2c1S(=O)(=O)O`, the IC50 entry at NS3h 2a[JFH1] and at NS3h 1b[con1] was “inactive” in each case.
In the case of `Cc1ccc2nc(-c3ccc4nc(-c5ccc(N(C)C(=O)c6ccc7ccccc7c6)cc5)sc4c3)sc2c1S(=O)(=O)O`, the results for the IC50 at NS3h 2a[JFH1] and on NS3h 1b[con1] were 13.5 µM and 14.4 µM, respectively.
On to `O=C(CCCCCCC(=O)Nc1ccc(-c2nc3ccccc3[nH]2)cc1)Nc1ccc(-c2nc3ccccc3[nH]2)cc1`, for which the IC50 on NS3h 2a[JFH1] was 4.7 µM; at NS3h 1b[con1], 7.5 µM.
Take `Cc1ccc2nc(-c3ccc4nc(-c5ccc(NC(=O)c6ccc(F)cc6)cc5)sc4c3)sc2c1S(=O)(=O)O`: the IC50 at NS3h 2a[JFH1] is 3 µM; at NS3h 1b[con1], 5.2 µM.
For `Cc1ccc2nc(-c3ccc4nc(-c5ccc(NC(=O)c6ccc7nc(-c8ccc(NC(=O)OCC9c%10ccccc%10-c%10ccccc%109)cc8)sc7c6)cc5)sc4c3)sc2c1S(=O)(=O)O`, the IC50 on NS3h 2a[JFH1] was 1.7 µM and 0.8 µM; on NS3h 1b[con1] it was 4 µM and 28.9 µM.
`Cc1ccc2nc(-c3ccc4nc(-c5ccc(NC(=O)c6cc(F)ccc6C(F)(F)F)cc5)sc4c3)sc2c1S(=O)(=O)O`: the IC50 at NS3h 2a[JFH1] is 16.6 µM; on NS3h 1b[con1], 19 µM.
